In PMC7187253 (Clinical Pharmacology in Drug Development, 2019):
Read-outs that look alike come from different tables or passages of the source.

Legend:
[1] = tested on: healthy subjects; experiment: Safety assessments; type: in vivo, human; details: for Fatigue / Headache / Insomnia / TEAEs considered treatment related / Total TEAEs reported / Subjects reporting ≥1 AE: during treatment period; for Subjects reporting ≥1 AE: sertraline n = 52, moxifloxacin n = 50
[2] = cited from earlier work
[3] = type: in vivo, human; details: for MR (metabolite‐to‐parent ratio for AUC24), geometric mean (%CV): corrected for molecular weight; for Cmin, geometric mean (%CV): 0‐24 h after last dose; for AUC(0-t): AUClast
[4] = tested on: cardiac repolarization in healthy subjects; experiment: PK/PD exposure‐response analysis of QTcF; details: for Estimated slope of the regression for ∆QTcF versus plasma concentration: separate PK/PD models for sertraline and N‐desmethylsertraline concentration
[5] = tested on: extracellular 5‐HT levels; details: compared with sertraline; cited from earlier work
[6] = cited from earlier work; remark: listed apart in the source
[7] = tested on: CYP1A2; details: cited from earlier work
[8] = tested on: cardiac repolarization in healthy subjects
[9] = tested on: Kv1.5; details: Chinese hamster ovary cells; cited from earlier work
[10] = tested on: QTc interval; details: cited from earlier work
[11] = tested on: CYP2C19; details: cited from earlier work
[12] = tested on: CYP2C9; details: cited from earlier work
[13] = tested on: CYP2D6; details: cited from earlier work
[14] = ref Pfizer Inc, data on file, cited from earlier work
[15] = Day 1, sertraline 50 mg single dose
[16] = Day 1, sertraline 50 mg single dose, plasma, healthy subjects
[17] = Day 14, sertraline 400 mg/day multiple dose
[18] = 1 h after dosing on day 14, sertraline 400 mg/day
[19] = 2 h after dosing on day 14, sertraline 400 mg/day
[20] = 3 h after dosing on day 14, sertraline 400 mg/day
[21] = 4 h after dosing on day 14, sertraline 400 mg/day
[22] = 5 h after dosing on day 14, sertraline 400 mg/day
[23] = 6 h after dosing on day 14, sertraline 400 mg/day
[24] = 8 h after dosing on day 14, sertraline 400 mg/day
[25] = 12 h after dosing on day 14, sertraline 400 mg/day
[26] = 24 h after dosing on day 14, sertraline 400 mg/day
[27] = categorical analysis of maximum postdose QTcF
[28] = human, plasma, 400 mg/day, arithmetic mean ± SD, Day 14, sertraline 400 mg/day multiple dose
[29] = patients admitted for sertraline overdose (>200 mg)

Q: For `COc1c(N2C[C@@H]3CCCN[C@@H]3C2)c(F)cc2c(=O)c(C(=O)O)cn(C3CC3)c12` [moxifloxacin], which Fatigue [1] is on record?
A: 7 subjects

Q: What about the Headache [1] of the same molecule?
A: 11 subjects

Q: And the Insomnia [1]?
A: 11 subjects

Q: What about the “TEAEs considered treatment related” value [1] of the same molecule?
A: 92

Q: And the “Total TEAEs reported” value [1]?
A: 105

Q: And the “Subjects reporting ≥1 AE” value [1]?
A: 42 subjects

Q: And the Population tmax [2]?
A: 3 h

Q: With `N[C@H]1CC[C@@H](c2ccc(Cl)c(Cl)c2)c2ccccc21` [N‐desmethylsertraline] as the molecule, how does the “AUC24, arithmetic mean ± SD” value [3, 15] read?
A: 79.03 ± 19.199 ng·h/mL

Q: What about the “AUC24, geometric mean (%CV)” value [3, 15] of the same molecule?
A: 76.87 (24) ng • h/mL

Q: What about the “Cmax, arithmetic mean ± SD” value [3, 15] of the same molecule?
A: 4.428 ± 1.3189 ng/mL

Q: What about the “MR (metabolite‐to‐parent ratio for AUC24), arithmetic mean ± SD” value [3, 15] of the same molecule?
A: 0.5493 ± 0.1743

Q: What about the “tmax, median (range)” value [3, 15] of the same molecule?
A: 12.0 (5.00‐23.9) h

Q: And the “Cmax, geometric mean (%CV)” value [3, 16]?
A: 4.269 (27) ng/mL

Q: And the “MR (metabolite‐to‐parent ratio for AUC24), geometric mean (%CV)” value [3, 15]?
A: 0.5222 (34)

Q: And the “Cmax, geometric mean (%CV)” value ([3]; Day 14, sertraline 400 mg/day (200 mg BID, only morning dose on day 14), multiple dose, plasma)?
A: 249.6 (23) ng/mL

Q: And the “AUC24, arithmetic mean ± SD” value [3, 17]?
A: 5342 ± 1109.5 ng·h/mL

Q: And the “AUC24, geometric mean (%CV)” value [3, 17]?
A: 5227 (22) ng • h/mL

Q: What about the “AUClast, arithmetic mean ± SD” value [3, 17] of the same molecule?
A: 13500 ± 3225.2 ng·h/mL

Q: What about the “AUClast, geometric mean (%CV)” value [3, 17] of the same molecule?
A: 13110 (25) ng • h/mL

Q: And the “Cmin, arithmetic mean ± SD” value [3, 17]?
A: 188.4 ± 39.567 ng/mL

Q: What about the “MR (metabolite‐to‐parent ratio for AUC24), arithmetic mean ± SD” value [3, 17] of the same molecule?
A: 1.283 ± 0.3075

Q: What about the “tmax, median (range)” value [3, 17] of the same molecule?
A: 8.00 (1.07‐12.1) h

Q: And the “Cmin, geometric mean (%CV)” value [3, 17]?
A: 184.1 (23) ng/mL

Q: What about the “MR (metabolite‐to‐parent ratio for AUC24), geometric mean (%CV)” value [3, 17] of the same molecule?
A: 1.248 (24)

Q: And the “Estimated slope of the regression for ∆QTcF versus plasma concentration” value [4]?
A: 0.036 ms/ng/mL

Q: What about the “Effect on extracellular 5‐HT levels” value [5] of the same molecule?
A: lack of effect

Q: Which Maximum tolerated dose [6] does the source give for `CN[C@H]1CC[C@@H](c2ccc(Cl)c(Cl)c2)c2ccccc21` [sertraline] here?
A: 400 mg/day

Q: What about the CYP1A2 inhibitor class [7] of the same molecule?
A: weak inhibitor

Q: And the “QTcF, Least Squares Difference (Sertraline‐Placebo)” value (“QTcF, Least Squares Difference” below) [8, 18]?
A: 6.957 ms

Q: And the “QTcF, Least Squares Mean” value [8, 18]?
A: 414.299 ms

Q: What about the “QTcF, Least Squares Difference” value [8, 19] of the same molecule?
A: 7.851 ms

Q: And the “QTcF, Least Squares Mean” value [8, 19]?
A: 415.625 ms

Q: And the “QTcF, Least Squares Difference” value [8, 20]?
A: 7.824 ms

Q: And the “QTcF, Least Squares Mean” value [8, 20]?
A: 416.465 ms

Q: What about the “QTcF, Least Squares Difference” value [8, 21] of the same molecule?
A: 9.651 ms

Q: And the “QTcF, Least Squares Mean” value [8, 21]?
A: 418.252 ms

Q: What about the “QTcF, Least Squares Difference” value [8, 22] of the same molecule?
A: 7.377 ms

Q: What about the “QTcF, Least Squares Mean” value [8, 22] of the same molecule?
A: 411.285 ms

Q: And the “QTcF, Least Squares Difference” value [8, 23]?
A: 6.511 ms

Q: What about the “QTcF, Least Squares Mean” value [8, 23] of the same molecule?
A: 408.985 ms

Q: What about the “QTcF, Least Squares Difference” value [8, 24] of the same molecule?
A: 5.597 ms

Q: And the “QTcF, Least Squares Mean” value [8, 24]?
A: 408.732 ms

Q: What about the “QTcF, Least Squares Difference” value [8, 25] of the same molecule?
A: 5.677 ms

Q: And the “QTcF, Least Squares Mean” value [8, 25]?
A: 411.019 ms

Q: And the “QTcF, Least Squares Difference” value [8, 26]?
A: 7.346 ms

Q: And the “QTcF, Least Squares Mean” value [8, 26]?
A: 414.294 ms

Q: And the “Time of longest placebo‐adjusted QTc interval” value ([8]; after dosing on day 14, sertraline 400 mg/day)?
A: 4 h

Q: What about the “Subjects with absolute QTcF interval of ≥480 milliseconds” value [8, 27] of the same molecule?
A: no participant

Q: What about the “Subjects with maximum increase from baseline in QTcF of ≥60 milliseconds” value [8, 27] of the same molecule?
A: no participant

Q: What about the “Predose (time 0) QTcF, mean (standard deviation)” value ([8]; day 14 of sertraline treatment period) of the same molecule?
A: 414.9 (14.89) milliseconds

Q: What about the “Cmax, geometric mean (%CV)” value [3, 16] of the same molecule?
A: 11.39 (37) ng/mL

Q: And the “Cmin, arithmetic mean ± SD” value [3, 17]?
A: 146.1 ± 57.093 ng/mL

Q: What about the “Rac (observed accumulation ratio of AUC), arithmetic mean ± SD” value [3, 17] of the same molecule?
A: 3.71 ± 0.82

Q: And the “Rac (observed accumulation ratio of AUC), geometric mean (%CV)” value [3, 17]?
A: 3.62 (22.79)

Q: And the “Cmin, geometric mean (%CV)” value [3, 17]?
A: 135.3 (43) ng/mL

Q: What about the Tmax ([3]; human, plasma, 50 mg) of the same molecule?
A: 5.06 h

Q: What about the AUC ([3]; human, plasma, 50 mg, AUC24, arithmetic mean ± SD, Day 1, sertraline 50 mg single dose) of the same molecule?
A: 162 ± 50.3 ng·h/mL

Q: What about the AUC ([3]; human, plasma, 50 mg, AUC24, geometric mean (%CV), Day 1, sertraline 50 mg single dose) of the same molecule?
A: 154 ng·h/mL

Q: And the Cmax ([3]; human, plasma, 50 mg, arithmetic mean ± SD, Day 1, sertraline 50 mg single dose)?
A: 12.1 ± 4.34 ng/mL

Q: And the Cmax ([3]; human, plasma, 50 mg, geometric mean (%CV), Day 1, sertraline 50 mg single dose, plasma, healthy subjects)?
A: 11.4 ng/mL

Q: And the concentration at 4 h ([3]; human, plasma, 400 mg/day)?
A: 213 ng/mL

Q: And the AUC ([3]; human, plasma, 400 mg/day, AUC24, arithmetic mean ± SD, Day 14, sertraline 400 mg/day multiple dose)?
A: 4650 ± 1580 ng·h/mL

Q: And the AUC ([3]; human, plasma, 400 mg/day, AUC24, geometric mean (%CV), Day 14, sertraline 400 mg/day multiple dose)?
A: 4390 ng·h/mL

Q: And the AUC(0-t) [3, 28]?
A: 9190 ± 3720 ng·h/mL

Q: And the AUC(0-t) ([3]; human, plasma, 400 mg/day, geometric mean (%CV), Day 14, sertraline 400 mg/day multiple dose)?
A: 8490 ng·h/mL

Q: And the Cmax [3, 28]?
A: 246 ± 80.6 ng/mL

Q: What about the Cmax ([3]; human, plasma, 400 mg/day, geometric mean (%CV), Day 14, sertraline 400 mg/day (200 mg BID, only morning dose on day 14), multiple dose, plasma) of the same molecule?
A: 234 ng/mL

Q: And the “Effect on Kv1.5” value [9]?
A: voltage‐dependent inhibition

Q: And the “Incidence of maximum QTcB interval prolongation (males >450 ms; females >460 ms)” value ([10]; ECG database, dosing and concomitant medications unknown)?
A: 7.9%

Q: What about the “Increase in QT/QTc interval” value ([10]; clinical trials, sertraline 50‐200 mg/day, major depression) of the same molecule?
A: No statistically significant increase

Q: And the “Mean increase in QTc interval compared with placebo” value ([10]; meta‐analysis of study‐level trial data, sertraline 50‐200 mg/day)?
A: 3.0 millisecond

Q: And the “Incidence of QTc interval >500 ms” value [10, 29]?
A: 6%

Q: What about the “Incidence of QTc interval greater than 440 ms” value [10, 29] of the same molecule?
A: 40%

Q: What about the “Mean QTcF increase” value ([10]; prospective, cross‐sectional population‐based study (n = 42)) of the same molecule?
A: 1.7 milliseconds

Q: And the CYP2C19 inhibitor class [11]?
A: weak inhibitor

Q: What about the CYP2C9 inhibitor class [12] of the same molecule?
A: weak inhibitor

Q: And the “Predicted mean ∆∆QTcF” value ([4]; at mean supratherapeutic Cmax of 234 ng/mL on day 14)?
A: 8.93 milliseconds

Q: And the “Predicted mean ∆ΔQTcF (change from baseline QTcF adjusted for placebo)” value ([4]; at mean therapeutic maximum plasma sertraline concentration of 86 ng/mL (200 mg/day))?
A: 3.57 milliseconds

Q: And the “Predicted mean ∆∆QTcF” value ([4]; at peak plasma sertraline concentration 223.5 ng/mL)?
A: 8.55 milliseconds

Q: And the “Estimated slope of the regression for ∆QTcF versus plasma concentration” value [4]?
A: 0.036 ms/ng/mL

Q: And the CYP2D6 inhibitor class [13]?
A: weak to moderate inhibitor

Q: What about the “Cmax at 400 mg/day relative to Cmax at 200 mg/day” value ([14]; day 14) of the same molecule?
A: approximately 3 times

Q: And the “Mean Cmax” value ([14]; sertraline 400 mg/day, day 14, healthy subjects)?
A: 282 ng/mL

Q: And the Fatigue [1]?
A: 17 subjects

Q: And the Headache [1]?
A: 18 subjects

Q: And the Insomnia [1]?
A: 22 subjects

Q: And the “TEAEs considered treatment related” value [1]?
A: 238

Q: What about the “Total TEAEs reported” value [1] of the same molecule?
A: 251

Q: And the “Subjects reporting ≥1 AE” value [1]?
A: 45 subjects

Q: What about the “Severe AE / SAE (psychiatric decompensation)” value ([1]; subject withdrawn, resolved the same day) of the same molecule?
A: single severe AE

Q: What about the “Discontinued study treatment due to an AE (asthma)” value ([1]; while receiving sertraline treatment) of the same molecule?
A: One additional subject

Q: What about the “Increase in exposure with hepatic impairment” value ([2]; hepatic impairment) of the same molecule?
A: 1.7 fold
